Reference: patent publication EP4653437A2 (Innovo Therapeutics Inc., priority 2023, dated 2024)

What was measured:
human 15-PGDH = target: T1, human 15-PGDH (Homo sapiens, UniProt P15428); assay: Evaluation of 15-PGDH inhibitory activity (fluorescence enzyme assay, NAD+/PGE2); format: biochemical; details: human 15-PGDH enzyme, fluorescence Vmax
T1 construct: purchased R&D System 5660-DH
T1 sequence (P15428 1-266): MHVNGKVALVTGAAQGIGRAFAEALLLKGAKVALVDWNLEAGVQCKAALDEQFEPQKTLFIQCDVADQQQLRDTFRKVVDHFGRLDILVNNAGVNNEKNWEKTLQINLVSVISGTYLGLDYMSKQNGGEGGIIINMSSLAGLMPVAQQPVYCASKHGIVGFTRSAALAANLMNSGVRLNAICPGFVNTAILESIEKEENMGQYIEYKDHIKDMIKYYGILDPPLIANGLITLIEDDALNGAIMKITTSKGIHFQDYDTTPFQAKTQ
Method: 15-PGDH inhibition activity of Example compounds was measured as follows. 6.7 ng of human 15-PGDH (R&D System# 5660-DH) enzyme (10 µL) was added to a black 96 well plate, 60 µL of buffer (50 mM Tris-HCl, pH 7.5, 0.01% Tween 20) was added, and 10 µL of 200 µM β-Nicotinamide adenine dinucleotide sodium salt (Sigma, Cat# N0632-5G) was added. 10 µL of (10x) compound solution in DMSO was added and reacted for 10 minutes at room temperature.

A549 cells = assay: Measurement of PGE2-increasing activity in A549 cells (IL-1β stimulated, PGE2 quantified in supernatant); format: cell-based; details: Homo sapiens, 24 h; concentration of 1 µM of each compound; IL-1β treated A549 cells; read-out: Increased PGE2 production in A549 cells
In short: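 A549 cells grown 24 h in F12K with 10% FBS, then switched to serum-free medium with or without IL-1β and compound (0.1% DMSO final). After 24 h at 37 °C, 5% CO2, supernatant PGE2 quantified by immunoassay.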

Row | SMILES | IC50 (human 15-PGDH) [µM] | fold induction at 1 µM (A549 cells)
1 | Cn1nccc1-c1cc(-c2cccc3c(C(=O)N4CCCCC4)cnn23)cc(N2CCOCC2)n1 [Example 369, (7-(2-(1-methyl-1H-pyrazol-5-yl)-6-morpholinopyridin-4-yl)pyrazolo[1,5-a]pyridin-3-yl)(piperidin-1-yl)methanone] | ≤ 0.1 | > 1.5
2 | COCCC(=O)Nc1ccc(-c2cccc3c(C(=O)N4CCCCC4)cnn23)cc1 [Example 98, 3-methoxy-N-(4-(3-(piperidine-1-carbonyl)pyrazolo[1,5-a]pyridin-7-yl)phenyl)propanamide] | ≤ 0.1 | > 1.5
3 | O=C(c1cnn2c(-c3cc(-c4cncc(F)c4)nc(N4CCOCC4)c3)cccc12)N1CCCCC1 [Example 376, (7-(5'-fluoro-6-morpholino-[2,3'-bipyridin]-4-yl)pyrazolo[1,5-a]pyridin-3-yl)(piperidin-1-yl)methanone] | ≤ 0.1 | > 1.5
4 | O=C(Cc1cccnc1)Nc1ncc(-c2cccc3c(C(=O)N4CCCCC4)cnn23)cc1Cl [Example 311, N-(3-chloro-5-(3-(piperidine-1-carbonyl)pyrazolo[1,5-a]pyridin-7-yl)pyridin-2-yl)-2-(pyridin-3-yl)acetamide] | ≤ 0.1 | > 1.5
5 | O=C(c1cnn2c(-c3ccc(N4CC(O)C4)nc3)cccc12)N1CCCCC1 [Example 210, (7-(6-(3-hydroxyazetidin-1-yl)pyridin-3-yl)pyrazolo[1,5-a]pyridin-3-yl)(piperidin-1-yl)methanone] | ≤ 0.1 | > 1.5
6 | CN1CCC(NC(=O)c2ccc(-c3cccc4c(C(=O)N5CCCCC5)cnn34)cc2)CC1 [Example 65, N-(1-methylpiperidin-4-yl)-4-(3-(piperidine-1-carbonyl)pyrazolo[1,5-a]pyridin-7-yl)benzamide] | ≤ 0.1 | < 1.5
7 | O=C(c1cnn2c(-c3ccc4occc4c3)cccc12)N1CCCCC1 [Example 127, (7-(benzofuran-5-yl)pyrazolo[1,5-a]pyridin-3-yl)(piperidin-1-yl)methanone] | ≤ 0.1 | > 1.5
8 | CN(C)C(=O)c1ccc(-c2cccc3c(C(=O)N4CCCCC4)cnn23)cc1 [Example 59, N,N-dimethyl-4-(3-(piperidine-1-carbonyl)pyrazolo[1,5-a]pyridin-7-yl)benzamide] | ≤ 0.1 | > 1.5
9 | O=C(c1cnn2c(-c3cnc4ccccc4c3)cccc12)N1CCCCC1 [Example 130, piperidin-1-yl(7-(quinolin-3-yl)pyrazolo[1,5-a]pyridin-3-yl)methanone] | ≤ 0.1 | > 1.5
10 | COC(=O)C1CN(c2ccc(-c3cccc4c(C(=O)N5CCCCC5)cnn34)cn2)C1 [Example 219, methyl 1-(5-(3-(piperidine-1-carbonyl)pyrazolo[1,5-a]pyridin-7-yl)pyridin-2-yl)azetidine-3-carboxylate] | ≤ 0.1 | > 1.5
11 | O=C(O)c1ncc(-c2cccc3c(C(=O)N4CCCCC4)cnn23)cc1F [Example 243, 3-fluoro-5-[3-(piperidine-1-carbonyl)pyrazolo[1,5-a]pyridin-7-yl]pyridine-2-carboxylic acid] | ≤ 0.1 | > 1.5

Second part, led by results:

Row | IC50 (human 15-PGDH) [µM] | SMILES | fold induction at 1 µM (A549 cells)
12 | ≤ 0.1 | Cn1ccc(NC(=O)c2cncc(-c3cccc4c(C(=O)N5CCCCC5)cnn34)c2)n1 [Example 193, N-(1-methyl-1H-pyrazol-3-yl)-5-(3-(piperidine-1-carbonyl)pyrazolo[1,5-a]pyridin-7-yl)nicotinamide] | > 1.5
13 | ≤ 0.1 | CN1CCc2ncc(-c3cccc4c(C(=O)N5CCCCC5)cnn34)cc2C1=O [Example 199, 6-methyl-3-(3-(piperidine-1-carbonyl)pyrazolo[1,5-a]pyridin-7-yl)-7,8-dihydro-1,6-naphthyridin-5(6H)-one] | > 1.5
14 | ≤ 0.1 | Cc1nnc(-c2ncc(-c3cccc4c(C(=O)N5CCCCC5)cnn34)cc2F)o1 [Example 379, [7-[5-fluoro-6-(5-methyl-1,3,4-oxadiazol-2-yl)-3-pyridyl]pyrazolo[1,5-a]pyridin-3-yl]-(1-piperidyl)methanone] | > 1.5
15 | ≤ 0.1 | O=C(c1ccc(-c2cccc3c(C(=O)N4CCCCC4)cnn23)cn1)N1CCOCC1 [Example 74, (7-(6-(morpholine-4-carbonyl)pyridin-3-yl)pyrazolo[1,5-a]pyridin-3-yl)(piperidin-1-yl)methanone] | > 1.5
16 | ≤ 0.1 | O=C(c1cnn2c(-c3ccccc3Cl)cccc12)N1CCCCC1 [Example 264, (7-(2-chlorophenyl)pyrazolo[1,5-a]pyridin-3-yl)(piperidin-1-yl)methanone] | > 1.5
17 | ≤ 0.1 | COCCNC(=O)c1ccc(-c2cccc3c(C(=O)N4CCCCC4)cnn23)cn1 [Example 78, N-(2-methoxyethyl)-5-(3-(piperidine-1-carbonyl)pyrazolo[1,5-a]pyridin-7-yl)picolinamide] | > 1.5
18 | ≤ 0.1 | O=C(c1cnn2c(-c3cnc(N4CCOC4=O)c(F)c3)cccc12)N1CCCCC1 [Example 323, 3-(3-fluoro-5-(3-(piperidine-1-carbonyl)pyrazolo[1,5-a]pyridin-7-yl)pyridin-2-yl)oxazolidin-2-one] | > 1.5
19 | ≤ 0.1 | O=C(c1cnn2c(-c3cc(-c4ncon4)cc([N+](=O)[O-])c3)cccc12)N1CCCCC1 [Example 342, (7-(3-nitro-5-(1,2,4-oxadiazol-3-yl)phenyl)pyrazolo[1,5-a]pyridin-3-yl)(piperidin-1-yl)methanone] | > 1.5
20 | ≤ 0.1 | O=C(c1cnn2c(-c3ccc(Cl)cc3)cccc12)N1CCCCC1 [Example 12, (7-(4-chlorophenyl)pyrazolo[1,5-a]pyridin-3-yl)(piperidin-1-yl)methanone] | > 1.5
21 | ≤ 0.1 | O=C(c1cnn2c(Nc3cc(=O)[nH]cn3)cccc12)N1CCCCC1 [Example 235, 4-[[3-(piperidine-1-carbonyl)pyrazolo[1,5-a]pyridin-7-yl]amino]-1H-pyrimidin-6-one] | > 1.5
22 | ≤ 0.1 | O=C(c1cnn2c(-c3cnc(-c4noc(=O)[nH]4)nc3)cccc12)N1CCCCC1 [Example 321, 3-[5-[3-(piperidine-1-carbonyl)pyrazolo[1,5-a]pyridin-7-yl]pyrimidin-2-yl]-4H-1,2,4-oxadiazol-5-one] | > 1.5
23 | ≤ 0.1 | O=C(NCc1ccon1)c1ccc(-c2cccc3c(C(=O)N4CCCCC4)cnn23)cn1 [Example 89, N-(isoxazol-3-ylmethyl)-5-(3-(piperidine-1-carbonyl)pyrazolo[1,5-a]pyridin-7-yl)picolinamide] | > 1.5
24 | ≤ 0.1 | O=C(c1ccc(-c2cccc3c(C(=O)N4CCCCC4)cnn23)cn1)N1CC2(CCC2)C1 [Example 214, 2-azaspiro[3.3]heptan-2-yl-[5-[3-(piperidine-1-carbonyl)pyrazolo[1,5-a]pyridin-7-yl]-2-pyridyl]methanone] | > 1.5
25 | ≤ 0.1 | O=C1NCCc2ncc(-c3cccc4c(C(=O)N5CCCCC5)cnn34)cc21 [Example 195, 3-(3-(piperidine-1-carbonyl)pyrazolo[1,5-a]pyridin-7-yl)-7,8-dihydro-1,6-naphthyridin-5(6H)-one] | > 1.5
